The source made the active and inactive calls.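 Rule for the calls: active = fitted curve reaches a 40% rise in fluorescent cells at or below the top valid dose; inactive = opposite-direction effect, or the rest.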

This note sets out measurements from PubChem BioAssay AID743396 (Broad Institute, 2014).

The experiment in a line: compound fluorescence in GFP channel, mTEFS cells – imaging, mTEFS fibroblasts, cherry-pick, artefact control for X-chromosome reactivation project, dose response (AID 743396).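 Note: raw share of Hoechst-counted cells scored GFP positive without control normalization.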 The following applies: mTEFS fibroblasts autofluorescence, GFP-channel imaging, 3 days; at 19.5 µM (top of the series); cells pretreated with 5-aza-dC.
`COc1ccc(/C=c2/sc3nc(-c4ccccc4)c(-c4ccccc4)n3c2=O)cc1`: the % fluorescent cells increase was 0.085% (inactive).
For `O=C(COC(=O)COc1cccc(C(F)(F)F)c1)NC1CCS(=O)(=O)C1` (stereo unspecified) the value was 0.015% (inactive); for `C[C@@H]1CN([C@H](C)CO)C(=O)c2cc(NS(=O)(=O)c3ccccc3)ccc2O[C@@H](C)CCCCO[C@@H]1CN(C)Cc1ccc2c(c1)OCO2`, 3.87% (inactive).
Consider `Cc1ccc(NC(=O)c2ccc(=O)[nH]c2)cc1S(=O)(=O)N1CCCCCC1`, for which the % fluorescent cells increase was 0.615% (inactive).
Turning to `COc1ccccc1N1CCN(C(=O)CN2C(=O)c3cccc4cccc(c34)C2=O)CC1`, the % fluorescent cells increase was 0.023% (inactive).
Consider `Cc1ccc(C(=O)c2oc3ccccc3c2NC(=O)c2cc(-c3ccccc3O)n[nH]2)cc1`, for which the % fluorescent cells increase was 9.74% (inactive).
On to `Cc1ccnc(NS(=O)(=O)c2ccc3c(c2)CCO3)c1`, for which the % fluorescent cells increase is 0.175% (inactive).
In the case of `CSc1ccc(CN2C(=O)NC3(CCCCCCC3)C2=O)cc1` it was -0.004% (inactive); in that of `O=C(c1ccc(Br)cc1)c1cc([N+](=O)[O-])ccc1N1CCOCC1`, 4.03% (inactive).
With `CCOC(=O)c1ccc(NC(=O)C2CCC(CNc3c(N4CCOCC4)c(=O)c3=O)CC2)cc1` (stereo unspecified), the % fluorescent cells increase is 0.105% (inactive).
For `CNc1ccc([N+](=O)[O-])cc1C(=O)O` the value was -0.007% (inactive).
In the case of `COc1ccc(C2C(=O)c3ccccc3C2=Nc2ccc(Br)cc2)cc1` (stereo unspecified) it was 0.033% (inactive); in that of `COc1ccc(Nc2nc(N)c(C(=O)c3ccc(F)cc3)s2)cc1`, 0% (inactive); in that of `Cc1ccc(-c2nc3ccc(Br)cn3c2Cc2ccccc2C(F)(F)F)cc1`, 0.042% (inactive).
For `CCOc1ccc(C(=O)c2cc([N+](=O)[O-])ccc2N2CCOCC2)cc1` the value was 0% (inactive).
Take `O=C1Nc2ccccc2/C1=C/c1ccccc1Cl`: the % fluorescent cells increase is 0% (inactive).
In the case of `COc1ccc(C(=O)Nc2ccc3oc(-c4cccc(F)c4)nc3c2)cc1OC` it was -0.003% (inactive); in that of `CCC(=O)OCCNc1cc(Sc2nc3ccccc3[nH]2)c2nonc2c1[N+](=O)[O-]`, -0.003% (inactive).
In the case of `CN1c2ccc(-c3ccc(C#N)cc3)cc2[C@@H]2[C@@H](CCN2C(=O)NC2CCCCC2)[C@H]1CO` it was 0.092% (inactive); in that of `O=[N+]([O-])c1ccc(/C=N/NC(=S)Nc2ccc(Cl)cc2Cl)s1`, 0.614% (inactive); in that of `C[C@@H]1CN(C)C(=O)Cc2cc(N(C)C)ccc2O[C@@H]1CN(C)S(C)(=O)=O`, 0.125% (inactive).
Turning to `C=C(C)c1cccc(C(C)(C)NC(=O)Nc2nnc(C(C)C)s2)c1`, the % fluorescent cells increase was 0% (inactive).
In the case of `CC=Cc1ccc2n(c1=O)C[C@@H]1[C@@H](CO)[C@H](C(=O)NCCCN(C)C)[C@H]2N1C(=O)c1ccccc1F` (mixture of isomers) it was 0.025% (inactive); in that of `CCOC(=O)C1=c2/c(=C/c3ccncc3)c(N)c(C(=O)OC)n2C(=O)C(c2ccncc2)S1` (stereo unspecified), 0.042% (inactive); in that of `Oc1c(C(c2ccccc2Cl)N2CCCC2)ccc2cccnc12` (stereo unspecified), 0% (inactive).
For `CCN(CC)c1ccc(/C=C/C(=O)C2C(=O)C=C(C)OC2=O)cc1` (stereo unspecified) the value was 1.2% (inactive); for `O=C(Nc1ccc(F)cc1)N1CC(=O)N2[C@H](CO)[C@H](c3ccc(C#Cc4ccc(F)cc4)cc3)[C@@H]2C1`, -0.166% (inactive); for `CCCn1c(SCC(=O)NCc2ccc(C)cc2)n[nH]c1=O`, -0.007% (inactive).
As for `CN1OC[C@@H]2CN(Cc3ccccc3)[C@H](c3cccc(N4CCOCC4)c3)C[C@@H]21`, the % fluorescent cells increase was 0.013% (inactive).
In the case of `CCc1ccc(CN(C)C(=O)c2cc(S(=O)(=O)N3CCOCC3)ccc2N2CCCC2)cc1` it was 0.027% (inactive); in that of `Cc1ccc(S(=O)(=O)Nc2ccc3c(c2)C(=O)N([C@H](C)CO)C[C@@H](C)[C@@H](CN(C)Cc2ccc(Cl)c(Cl)c2)OCCCC[C@H](C)O3)cc1`, 8.98% (inactive); in that of `C/C(=N\NC(=O)CC1N=C(Cc2ccccc2)NNC1=O)c1ccc(Br)cc1` (stereo unspecified), 0.037% (inactive).
For `O=c1c2cc(-c3ccccc3)sc2nc2n1N=C(c1ccccc1)CS2` the value was 1.14% (inactive).
`CC(=O)NC(c1ccc(Cl)cc1)c1c(O)ccc2ccc(O)cc12` (stereo unspecified): the % fluorescent cells increase is 0.001% (inactive).
Take `COc1ccc(-c2ccc3[nH]c4c(c3c2)CCN2C(=O)[C@@H]([C@H](C)O)[C@@H](N(C)C(=O)Nc3ccc(F)cc3)C[C@@H]42)cc1`: the % fluorescent cells increase is 10.8% (inactive).
In the case of `C[C@@H]1CN([C@@H](C)CO)C(=O)c2cc(NS(=O)(=O)c3cn(C)cn3)ccc2O[C@@H](C)CCCCO[C@H]1CN(C)C(=O)c1ccccc1` it was 0% (inactive); in that of `c1ccc(CCNc2nc(-c3ccccn3)nc3ccccc23)cc1`, 0% (inactive).
Consider `COc1ccc(S(=O)(=O)N(C)C[C@H]2OCCCC[C@@H](C)Oc3ccc(NC(=O)NC(C)C)cc3C(=O)N([C@@H](C)CO)C[C@H]2C)cc1`, for which the % fluorescent cells increase was 0.53% (inactive).
In the case of `CCOCCCn1c(=NC(C)=O)c(C#N)cc2c(=O)n3cccc(C)c3nc21` it was 0.498% (inactive); in that of `Cc1ccc(Cl)cc1NC(=O)CCC(=O)O`, -0.002% (inactive).
Consider `CC(C)N1C(=O)C(=O)N(CC(=O)N2CCc3ccccc32)C1=O`, for which the % fluorescent cells increase is 0.029% (inactive).
In the case of `[N-]=[N+]=CC(=O)C(O)(c1ccccc1)C(Cl)c1ccccc1` (stereo unspecified) it was -0.007% (inactive).
Take `C[C@H]1CN([C@@H](C)CO)C(=O)c2ccccc2-c2ccccc2CO[C@H]1CN(C)C(=O)[C@@H](Cc1ccccc1)N(C)C`: the % fluorescent cells increase was 0% (inactive).
In the case of `Cn1c(=O)c2[nH]c(-c3ccc(S(=O)(=O)O)cc3)nc2n(C)c1=O` it was 0.085% (inactive).
For `Cc1ccc(S(=O)(=O)Nc2ccc3c(c2)C(=O)N([C@@H](C)CO)C[C@@H](C)[C@@H](CN(C)Cc2ccc(C(=O)Nc4ccccc4N)cc2)O3)cc1` the value was 0% (inactive); for `COc1cc(CN2CCC(C(=O)NCC(C)(C)CN(C)C)CC2)ccc1OCc1ccccc1`, 0.013% (inactive); for `Cc1cc(-c2nc(C)c(-c3nnc(SCC(=O)Nc4ccc(Cl)cc4)n3C)s2)no1`, 0% (inactive).
As to `Cc1cc2c(NC(=O)Nc3ccc(C(C)(C)C)cc3)cccc2nn1`, the % fluorescent cells increase is 0.237% (inactive).
Take `CN(C)S(=O)(=O)c1cccc(C(=O)NCC2(N3CCOCC3)CCCCC2)c1`: the % fluorescent cells increase was 0.019% (inactive).
In the case of `Cn1cc(C(=O)N/N=C/C(Br)=C/c2ccccc2)ccc1=O` it was 0% (inactive).
For the compound `Cc1ccccc1NC(=O)c1c(C)[nH]c(=S)c(C#N)c1-c1ccc(Cl)cc1`, the % fluorescent cells increase was 0.031% (inactive).
